Measurements from patent US20260256822A1, “ENTRY-MODULATING AGENTS AND USES THEREFOR” (priority 2022, published 2026).
Values joined by “and” are separate entries in the source; they are usually repeats but may differ in a detail not shown here. Equal entries are not always repeated. Structures can show the parent of a compound that is named as a salt. Where two headings read alike, the source gives them in different places.

Experiments:
P. falciparum 3D7 clone = assay: In vitro blood stage parasite growth inhibition assay, [3H]-hypoxanthine incorporation, human red blood cells; assay type: cell-based, Plasmodium falciparum
PfCyRPA [1] = molecular target: T1, PfCyRPA (Plasmodium falciparum, UniProt Q8IFM8); assay type: binding; settings: compound injected first, then 2-6SLN; both at 1 μM
Target sequence in this assay (Q8IFM8 29-362): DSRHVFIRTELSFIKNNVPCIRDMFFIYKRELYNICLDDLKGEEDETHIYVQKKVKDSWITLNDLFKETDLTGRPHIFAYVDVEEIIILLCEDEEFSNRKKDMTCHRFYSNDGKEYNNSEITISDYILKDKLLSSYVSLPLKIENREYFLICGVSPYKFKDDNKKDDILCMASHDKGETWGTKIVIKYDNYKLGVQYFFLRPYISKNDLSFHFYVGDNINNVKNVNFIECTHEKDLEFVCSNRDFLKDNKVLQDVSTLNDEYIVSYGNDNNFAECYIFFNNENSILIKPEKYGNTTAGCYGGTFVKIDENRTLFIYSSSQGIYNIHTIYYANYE

PfCyRPA [2] = molecular target: T1, PfCyRPA; assay: biochemical
Target sequence in this assay (Q8IFM8 29-362): as above

[3] = molecular target: T2, New Delhi metallo-beta-lactamase 2 (NDM2) (Klebsiella pneumoniae, UniProt C7C422, P28A); assay: biochemical
PfCyRPA [4] = molecular target: T1, PfCyRPA; settings: for affinity of interaction with PfCyRPA: SPR
Target sequence in this assay (Q8IFM8 29-362): as above

[5] = molecular target: T2, New Delhi metallo-beta-lactamase 2 (NDM2); settings: read-out: NDM2 KD; Table 9
PvCyRPA = PvCyRPA (Plasmodium vivax, UniProt A5K678, A187P/D259E/E126K/E159D/E86Q/G127E/G69A/H95N/K131E/K185E/K93E/Q142K/R122K/T90K); assay type: binding; settings: Table 12, PvCyRPA
PfCyRPA [6] = molecular target: T1, PfCyRPA; settings: SPR
Target sequence in this assay (Q8IFM8 26-362): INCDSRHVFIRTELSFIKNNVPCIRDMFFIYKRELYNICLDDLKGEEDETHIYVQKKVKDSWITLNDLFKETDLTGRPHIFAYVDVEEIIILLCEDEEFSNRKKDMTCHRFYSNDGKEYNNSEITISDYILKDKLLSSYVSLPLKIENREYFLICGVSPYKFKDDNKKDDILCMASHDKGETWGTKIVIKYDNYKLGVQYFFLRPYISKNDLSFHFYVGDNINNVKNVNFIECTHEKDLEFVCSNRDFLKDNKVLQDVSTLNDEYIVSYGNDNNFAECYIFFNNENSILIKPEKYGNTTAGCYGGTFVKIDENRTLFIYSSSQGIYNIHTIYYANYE

[7] = for Serum concentration of zinc pyrithione: human
Procedure: Participants were instructed to completely wet hair, measure out 20 mL of anti-dandruff shampoo using a measuring cup provided, pour shampoo onto the scalp and massage shampoo into the scalp, leave shampoo on for 5-10 minutes using the timer provided then completely rinse off shampoo. Blood and urine samples were also collected on day 3 (two days of shampoo use), day 4 (three days of shampoo use), day 5 (day after shampoo use stops) and day 10 (five days after shampoo use has stopped). Serum was separated from blood collected in SST II Advance serum separation tubes (BD) according to the manufacturer's instructions. Sera and urine were batched and stored at −80° C. within 4 hours of collection.
(§1) Standard curves were run across the following concentrations: • ZnPT—0.61 nM to 10 μM • PT—61 nM to 1 mM • Zinc—0.61 μM to 10 mM

[8] = mice, 7 days post infection
Procedure: To determine the level of ZnPT in serum a methodology using two ZnPT binding proteins was developed.
as §1
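For Serum concentration of zinc pyrithione in this document: human volunteers used 1% ZPT shampoo twice daily for three days from day 2, serum sampled on days 1 (pre-use), 3, 4, 5 and 10.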
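For day of the highest serum concentration of ZnPT in this document: human volunteers used 1% ZPT shampoo twice daily for three days from day 2, serum sampled on days 1 (pre-use), 3, 4, 5 and 10.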

T2 sequence (C7C422 29-270 P28A (numbered from the first residue shown)): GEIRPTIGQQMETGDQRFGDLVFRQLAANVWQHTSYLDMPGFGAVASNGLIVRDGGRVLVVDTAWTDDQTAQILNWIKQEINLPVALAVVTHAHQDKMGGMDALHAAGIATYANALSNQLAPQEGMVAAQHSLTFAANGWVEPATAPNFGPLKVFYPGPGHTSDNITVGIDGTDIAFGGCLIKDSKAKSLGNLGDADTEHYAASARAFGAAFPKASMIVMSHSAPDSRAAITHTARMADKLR

CC(O)C(=O)O.CCOc1ccc2nc3cc(N)ccc3c(N)c2c1 (racemic) [RIVANOL, 6,9-Diamino-2-ethoxyacridine-DL-lactate monohydrate]
EC50 (P. falciparum 3D7 clone; Plasmodium falciparum, 3D7, Erythrocyte, Table 8, human RBC, P. falciparum 3D7, read-out: EC50 in RBC infection): 0.019 µg/mL and 55.3 nM
concentration that completely inhibits P. falciparum infection of human RBCs (P. falciparum 3D7 clone; human RBC, monohydrate): 100 ng/mL and 291.1 nM
Blocking of 2-6SLN binding (PfCyRPA [1]): 87.6% ± 9.7
Kd (PfCyRPA [2]): 2.46 ± 0.41 nM

On1ccccc1=S [1-Hydroxy-2(1H)-pyridinethione]
Kd (PfCyRPA [2]): 169000 nM
Kd [3]: 894000 nM

O=C1CC2(CCCC2)CC(=O)N1CCCCN1CCN(c2ncccn2)CC1 [Buspirone hydrochloride]
Blocking of 2-6SLN binding (PfCyRPA [1]): 77.4% ± 8.2
Kd (PfCyRPA [2]): 33.6 ± 4.31 nM

CO[C@H]1C[C@H](O[C@H]2[C@H](C)O[C@@H](O[C@@H]3/C(C)=C/C[C@@H]4C[C@@H](C[C@]5(C=C[C@H](C)[C@@H](C6CCCCC6)O5)O4)OC(=O)[C@@H]4C=C(C)[C@@H](O)[C@H]5OC/C(=C\C=C\[C@@H]3C)[C@]54O)C[C@@H]2OC)O[C@@H](C)[C@@H]1O [Doramectin]
Kd (PfCyRPA [4]): 7040 ± 2030 nM

CCC(C)[C@H]1O[C@]2(CC[C@@H]1C)C[C@@H]1C[C@@H](C/C=C(\C)[C@@H](O[C@H]3C[C@H](OC)[C@@H](O[C@H]4C[C@@H](OC)[C@H](O)[C@@H](C)O4)[C@H](C)O3)[C@@H](C)/C=C/C=C3\CO[C@@H]4[C@H](O)C(C)=C[C@@H](C(=O)O1)[C@]34O)O2 (some centres unmarked) [Ivermectin]
EC50 (P. falciparum 3D7 clone; Plasmodium falciparum, 3D7, Erythrocyte, human RBC, Example 6): 0.534 µg/mL
concentration that completely inhibits P. falciparum infection of human RBCs (P. falciparum 3D7 clone; human RBC): 2000 ng/mL and 2.29 μM
EC50 (P. falciparum 3D7 clone; read-out: EC50 in RBC infection, Table 7, human RBC, P. falciparum 3D7): 610 nM
affinity of interaction with PfCyRPA (PfCyRPA [4]): high affinity interaction
Blocking of 2-6SLN binding (PfCyRPA [1]): 67.3% ± 4.9
Kd (PfCyRPA [2]): 93.2 ± 14 nM

CO/N=C1\C[C@]2(C[C@@H]3C[C@@H](C/C=C(\C)C[C@@H](C)/C=C/C=C4\CO[C@@H]5[C@H](O)C(C)=C[C@@H](C(=O)O3)[C@]45O)O2)O[C@H](/C(C)=C/C(C)C)[C@H]1C [Moxidectin]
Kd (PfCyRPA [2]): 13400 ± 521 nM

COc1ccc(CCC(=O)c2c(O)cc(O[C@@H]3O[C@H](CO)[C@@H](O)[C@H](O)[C@H]3O[C@@H]3O[C@@H](C)[C@H](O)[C@@H](O)[C@H]3O)cc2O)cc1O [Neohesperidin dihydrochalcone]
Kd (PfCyRPA [2]): 24.6 ± 1.45 nM

CCC(C)(C)C(=O)O[C@H]1C[C@@H](C)C=C2C=C[C@H](C)[C@H](CC[C@@H]3C[C@@H](O)CC(=O)O3)[C@H]21 [Simvastatin]
Kd (PfCyRPA [2]): 31.4 ± 2.24 nM

[O-][n+]1ccccc1S [Sodium Pyrithione]
Kd (PfCyRPA [4]; Table 3, PfCyRPA): 122000 nM
Kd (PfCyRPA [4]; read-out: CyRPA KD, Table 9): 122000 nM
Kd [5]: 789000 nM

O=S(=O)([O-])[O-].[Zn+2] [Zinc, Zinc sulfate]
Kd (PfCyRPA [4]; Table 3, PfCyRPA): 546000 nM
Kd (PfCyRPA [4]; read-out: CyRPA KD, Table 9): 546000 nM
Kd [5]: 317000 nM

Abamectin
EC50 in RBC infection (P. falciparum 3D7 clone; Table 7, human RBC, P. falciparum 3D7): 0.888 µg/mL
EC50 (P. falciparum 3D7 clone; Table 7, human RBC, P. falciparum 3D7, read-out: EC50 in RBC infection): 1000 nM
concentration that completely inhibits P. falciparum infection of human RBCs (P. falciparum 3D7 clone; human RBC): 4000 ng/mL and 4.50 μM
Kd (PfCyRPA [4]): 19.1 ± 1.17 nM
Blocking of 2-6SLN binding (PfCyRPA [1]): 91.4% ± 6.8
Kd (PvCyRPA): 1140 ± 230 nM

Emamectin
Kd (PfCyRPA [4]): > 100000 nM

Milbemycin
Kd (PfCyRPA [4]): 967 ± 57 nM

Neu5Ac-α-(2-6)-Gal-β-(1-4)-GlcNAc [α2-6-SLN-Ac]
glycan ligand affinity for PfCyRPA (PfCyRPA [6]): highest affinity ligand

Zinc Pyrithione
Serum concentration of zinc pyrithione ([7]; Serum 1, Day 1 (before shampoo use)): 0.03 μM ±
Serum concentration of zinc pyrithione ([7]; Serum 1, Day 3, topical 1% ZPT shampoo): 0.04 μM ±
Serum concentration of zinc pyrithione ([7]; Serum 1, Day 4, topical 1% ZPT shampoo): 0.66 μM ±
Serum concentration of zinc pyrithione ([7]; Serum 1, Day 5, topical 1% ZPT shampoo): 2.7 μM ±
Serum concentration of zinc pyrithione ([7]; Serum 1, Day 10, topical 1% ZPT shampoo): −0.07 μM ±
Serum concentration of zinc pyrithione ([7]; Serum 2, Day 1 (before shampoo use)): 0.02 μM ±
Serum concentration of zinc pyrithione ([7]; Serum 2, Day 3, topical 1% ZPT shampoo): 0.88 μM ±
Serum concentration of zinc pyrithione ([7]; Serum 2, Day 4, topical 1% ZPT shampoo): 1.8 μM ±
Serum concentration of zinc pyrithione ([7]; Serum 2, Day 5, topical 1% ZPT shampoo): 4.3 μM ±
Serum concentration of zinc pyrithione ([7]; Serum 2, Day 10, topical 1% ZPT shampoo): 0.33 μM ±
Serum concentration of zinc pyrithione ([7]; Serum 3, Day 1 (before shampoo use)): 0.08 μM ±
Serum concentration of zinc pyrithione ([7]; Serum 3, Day 3, topical 1% ZPT shampoo): 0.24 μM ±
Serum concentration of zinc pyrithione ([7]; Serum 3, Day 4, topical 1% ZPT shampoo): 0.84 μM ±
Serum concentration of zinc pyrithione ([7]; Serum 3, Day 5, topical 1% ZPT shampoo): 1.6 μM ±
Serum concentration of zinc pyrithione ([7]; Serum 3, Day 10, topical 1% ZPT shampoo): 1.0 μM ±
Serum concentration of zinc pyrithione ([7]; Serum 4, Day 1 (before shampoo use)): 0.03 μM ±
Serum concentration of zinc pyrithione ([7]; Serum 4, Day 3, topical 1% ZPT shampoo): 0.81 μM ±
Serum concentration of zinc pyrithione ([7]; Serum 4, Day 4, topical 1% ZPT shampoo): 1.0 μM ±
Serum concentration of zinc pyrithione ([7]; Serum 4, Day 5, topical 1% ZPT shampoo): 1.5 μM ±
Serum concentration of zinc pyrithione ([7]; Serum 4, Day 10, topical 1% ZPT shampoo): 1.2 μM ±
Serum concentration of zinc pyrithione ([7]; Serum 5, Day 1 (before shampoo use)): 0.01 μM ±
Serum concentration of zinc pyrithione ([7]; Serum 5, Day 3, topical 1% ZPT shampoo): 0.02 μM ±
Serum concentration of zinc pyrithione ([7]; Serum 5, Day 4, topical 1% ZPT shampoo): 0.10 μM ±
Serum concentration of zinc pyrithione ([7]; Serum 5, Day 5, topical 1% ZPT shampoo): 0.22 μM ±
Serum concentration of zinc pyrithione ([7]; Serum 5, Day 10, topical 1% ZPT shampoo): 0.02 μM ±
Serum concentration of zinc pyrithione ([7]; Serum 6, Day 1 (before shampoo use)): 0.001 μM ±
Serum concentration of zinc pyrithione ([7]; Serum 6, Day 3, topical 1% ZPT shampoo): 0.10 μM ±
Serum concentration of zinc pyrithione ([7]; Serum 6, Day 4, topical 1% ZPT shampoo): 0.21 μM ±
Serum concentration of zinc pyrithione ([7]; Serum 6, Day 5, topical 1% ZPT shampoo): 0.38 μM ±
Serum concentration of zinc pyrithione ([7]; Serum 6, Day 10, topical 1% ZPT shampoo): 0.007 μM ±
Serum concentration of zinc pyrithione ([7]; Serum 7, Day 1 (before shampoo use)): 0.01 μM ±
Serum concentration of zinc pyrithione ([7]; Serum 7, Day 3, topical 1% ZPT shampoo): 0.84 μM ±
Serum concentration of zinc pyrithione ([7]; Serum 7, Day 4, topical 1% ZPT shampoo): 0.96 μM ±
Serum concentration of zinc pyrithione ([7]; Serum 7, Day 5, topical 1% ZPT shampoo): 1.5 μM ±
Serum concentration of zinc pyrithione ([7]; Serum 7, Day 10, topical 1% ZPT shampoo): 1.2 μM ±
Serum concentration of zinc pyrithione ([7]; Serum 8, Day 1 (before shampoo use)): 0.02 μM ±
Serum concentration of zinc pyrithione ([7]; Serum 8, Day 3, topical 1% ZPT shampoo): 0.02 μM ±
Serum concentration of zinc pyrithione ([7]; Serum 8, Day 4, topical 1% ZPT shampoo): 0.09 μM ±
Serum concentration of zinc pyrithione ([7]; Serum 8, Day 5, topical 1% ZPT shampoo): 0.26 μM ±
Serum concentration of zinc pyrithione ([7]; Serum 8, Day 10, topical 1% ZPT shampoo): 0.11 μM ±
Serum concentration of zinc pyrithione ([7]; Serum 9, Day 1 (before shampoo use)): 0.04 μM ±
Serum concentration of zinc pyrithione ([7]; Serum 9, Day 3, topical 1% ZPT shampoo): 0.22 μM ±
Serum concentration of zinc pyrithione ([7]; Serum 9, Day 4, topical 1% ZPT shampoo): 0.30 μM ±
Serum concentration of zinc pyrithione ([7]; Serum 9, Day 5, topical 1% ZPT shampoo): 0.49 μM ±
Serum concentration of zinc pyrithione ([7]; Serum 9, Day 10, topical 1% ZPT shampoo): 0.14 μM ±
Serum concentration of zinc pyrithione ([7]; Serum 10, Day 1 (before shampoo use)): 0.004 μM ±
Serum concentration of zinc pyrithione ([7]; Serum 10, Day 3, topical 1% ZPT shampoo): 0.15 μM ±
Serum concentration of zinc pyrithione ([7]; Serum 10, Day 4, topical 1% ZPT shampoo): 1.1 μM ±
Serum concentration of zinc pyrithione ([7]; Serum 10, Day 5, topical 1% ZPT shampoo): 1.5 μM ±
Serum concentration of zinc pyrithione ([7]; Serum 10, Day 10, topical 1% ZPT shampoo): 0.98 μM ±
day of the highest serum concentration of ZnPT ([7]; day after three consecutive days of topical treatment): 5 days
EC50 in RBC infection (P. falciparum 3D7 clone; Table 6, human RBC, P. falciparum 3D7, listed as ZnPT): 0.163 µg/mL
EC50 (P. falciparum 3D7 clone; Table 6, human RBC, P. falciparum 3D7, read-out: EC50 in RBC infection): 513 nM
concentration that completely inhibits P. falciparum infection of human RBCs (P. falciparum 3D7 clone; human RBC, listed as ZnPT): 500 ng/mL and 1.57 μM
Kd (PfCyRPA [4]): 0.833 ± 0.192 nM
affinity of interaction with PfCyRPA (PfCyRPA [4]): high affinity interaction
Kd (PfCyRPA [4]; Table 3, PfCyRPA): 0.833 nM
Kd (PfCyRPA [4]; read-out: CyRPA KD, Table 9): 0.833 nM
Kd [5]: 38.5 nM
Blocking of 2-6SLN binding (PfCyRPA [1]): 98.2% ± 3.4
Serum concentration at the point of testing [8]: < 163 ng/mL
Kd (PvCyRPA): 50.8 ± 2.91 nM
